In patent US12691112B2, “FGFR tyrosine kinase inhibitors for the treatment of urothelial carcinoma” (Janssen Pharmaceutica NV, priority 2019, dated 2026):
Like-named read-outs stand apart in the source and are kept apart here.

System: metastatic or surgically unresectable urothelial cancer harboring select FGFR genetic alterations
Details: chemo relapsed/refractory
Source text: The study comprises a Screening Phase (molecular screening at any time prior to first dose and study screening within 30 days of first dose), a treatment phase, and a post-treatment follow-up phase. The treatment phase comprises the period from first dose until the end-of-treatment visit. The follow-up phase extends until the subject has died, withdraws consent, is lost to follow-up, or the end of study, whichever comes first.
Included patients were adults with measurable urothelial cancer per Response Evaluation Criteria in Solid Tumors version 1.1.
Patients were required to have at least 1 FGFR2/FGFR3 mutation or fusion per central lab testing of RNA from formalin-fixed, paraffin-embedded tumor samples, using a custom reverse transcriptase polymerase chain reaction assay.
Patients were contacted every 12 weeks for survival assessment.
The study was designed to enroll 180 patients with specified FGFR alterations. Of these, ≥88 were required in the selected regimen. […] Responses were assessed by investigators and an independent radiological review committee. Progression-free survival and overall survival were estimated using Kaplan-Meier product limit method. Data from patients who were progression free and alive or with unknown status were censored at last tumor assessment. Efficacy end points were analysed at primary analysis cut-off.

[1] = 6 mg QD, Mutation: FGFR3-R248C/FGFR3-Y373C, n=1
[2] = 8 mg QD, Any FGFR alterations, n=87
[3] = 8 mg QD, FGFR fusions (excluding mutations), 4 responders
[4] = 8 mg QD, FGFR fusions (excluding mutations), n=23
[5] = 8 mg QD, FGFR mutations (excluding fusions), 31 responders
[6] = 8 mg QD, FGFR mutations (excluding fusions), n=64
[7] = 8 mg QD, Fusion: FGFR2-CASP7/FGFR3-TACC3 V3, n=1
[8] = 10 mg 7 on/7 off, Any FGFR alterations, n=29
[9] = 10 mg 7 on/7 off, FGFR fusions (excluding mutations), n=2
[10] = 10 mg 7 on/7 off, FGFR mutations (excluding fusions), 5 responders
[11] = 10 mg 7 on/7 off, FGFR mutations (excluding fusions), n=24
[12] = 10 mg 7 on/7 off, FGFR mutations and fusions, 1 responder
[13] = 10 mg 7 on/7 off, FGFR mutations and fusions, n=3
[14] = 10 mg 7 on/7 off, Mutation and fusion: FGFR3-R248C/FGFR3-TACC3 V1, n=1
[15] = 10 mg 7 on/7 off, Mutation and fusion: FGFR3-S249C/FGFR3-BAIAP2L1, n=1
[16] = 10 mg 7 on/7 off, Mutation and fusion: FGFR3-S249C/FGFR3-Y373C/FGFR2-CASP7/FGFR3-BAIAP2L1/FGFR3-TACC3 V1/FGFR3-TACC3 V3, n=1

COc1cc(OC)cc(N(CCNC(C)C)c2ccc3ncc(-c4cnn(C)c4)nc3c2)c1 [erdafitinib, N-(3,5-dimethoxy-phenyl)-N′-(1-methylethyl)-N-[3-(1-methyl-1H-pyrazol-4-yl)quinoxalin-6-yl]ethane-1,2-diamine]
Disease control rate (CR + PR + SD) [1]: 1 (100.0%) | Inevaluable [1]: 0% | Objective response rate (CR + PR) [1]: 1 (100.0%) | Progressive disease (PD) [1]: 0% | Disease control rate (CR + PR + SD) [2]: 69 (79.3%) | Inevaluable [2]: 2 (2.3%) | Progressive disease (PD) [2]: 16 (18.4%) | 6-month progression-free survival rate (95% CI), among responders [3]: 0.50 (0.06, 0.84) | 9-month progression-free survival rate (95% CI), among responders [3]: 0.50 (0.06, 0.84) | Confirmed complete response (CR) [4]: 0% | Confirmed partial response (PR) [4]: 4 (17.4%) | Disease control rate (CR + PR + SD) [4]: 15 (65.2%) | Inevaluable [4]: 1 (4.3%) | Progressive disease (PD) [4]: 7 (30.4%) | 6-month progression-free survival rate (95% CI), among responders [5]: 0.42 (0.24, 0.59) | 9-month progression-free survival rate (95% CI), among responders [5]: 0.19 (0.07, 0.37) | 12-month progression-free survival rate (95% CI), among responders [5]: 0.19 (0.07, 0.37) | Confirmed complete response (CR) [6]: 3 (4.7%) | Confirmed partial response (PR) [6]: 28 (43.8%) | Disease control rate (CR + PR + SD) [6]: 54 (84.4%) | Inevaluable [6]: 1 (1.6%) | Progressive disease (PD) [6]: 9 (14.1%) | Confirmed complete response (CR) [7]: 0% | Confirmed partial response (PR) [7]: 0% | Disease control rate (CR + PR + SD) [7]: 0% | Inevaluable [7]: 1 (100.0%) | Objective response rate (CR + PR) [7]: 0% | Progressive disease (PD) [7]: 0% | Confirmed complete response (CR) [8]: 1 (3.4%) | Confirmed partial response (PR) [8]: 5 (17.2%) | Disease control rate (CR + PR + SD) [8]: 23 (79.3%) | Inevaluable [8]: 2 (6.9%) | Progressive disease (PD) [8]: 4 (13.8%) | Confirmed complete response (CR) [9]: 0% | Confirmed partial response (PR) [9]: 0% | Disease control rate (CR + PR + SD) [9]: 1 (50.0%) | Inevaluable [9]: 0% | Objective response rate (CR + PR) [9]: 0% | Progressive disease (PD) [9]: 1 (50.0%) | 6-month progression-free survival rate (95% CI), among responders [10]: 0.80 (0.20, 0.97) | 9-month progression-free survival rate (95% CI), among responders [10]: 0.80 (0.20, 0.97) | 12-month progression-free survival rate (95% CI), among responders [10]: 0.60 (0.13, 0.88) | Confirmed complete response (CR) [11]: 1 (4.2%) | Confirmed partial response (PR) [11]: 4 (16.7%) | Disease control rate (CR + PR + SD) [11]: 20 (83.3%) | Inevaluable [11]: 2 (8.3%) | Objective response rate (CR + PR) [11]: 5 (20.8%) | Progressive disease (PD) [11]: 2 (8.3%) | 6-month progression-free survival rate (95% CI), among responders [12]: 0 (NE, NE) | 9-month progression-free survival rate (95% CI), among responders [12]: 0 (NE, NE) | 12-month progression-free survival rate (95% CI), among responders [12]: 0 (NE, NE) | Confirmed complete response (CR) [13]: 0% | Confirmed partial response (PR) [13]: 1 (33.3%) | Disease control rate (CR + PR + SD) [13]: 2 (66.7%) | Inevaluable [13]: 0% | Objective response rate (CR + PR) [13]: 1 (33.3%) | Progressive disease (PD) [13]: 1 (33.3%) | Confirmed complete response (CR) [14]: 0% | Confirmed partial response (PR) [14]: 1 (100.0%) | Disease control rate (CR + PR + SD) [14]: 1 (100.0%) | Inevaluable [14]: 0% | Objective response rate (CR + PR) [14]: 1 (100.0%) | Progressive disease (PD) [14]: 0% | Confirmed complete response (CR) [15]: 0% | Confirmed partial response (PR) [15]: 0% | Disease control rate (CR + PR + SD) [15]: 0% | Inevaluable [15]: 0% | Objective response rate (CR + PR) [15]: 0% | Progressive disease (PD) [15]: 1 (100.0%) | Confirmed complete response (CR) [16]: 0% | Confirmed partial response (PR) [16]: 0%
